Results from patent US20040077591A1, “Histone deacetylase inhibitors for the treatment of multiple sclerosis, amyotrophic lateral sclerosis and Alzheimer's Disease” (The Brigham and Women's Hospital, Inc., priority 2002, published 2004).

Tests used:
caspases 3 and 9 = test: Western analysis of caspases in CNS tissue of EAE mice; type: in vivo
Excerpt: FIGS. 7A-B—Densitometry of bands from western analysis of brain tissue proteins isolated from HDAC inhibitor-treated and vehicle-treated mice. […] Activated caspase 9 is decreased by oral sodium phenylbutyrate (SPB) and by intraperitoneal TSA. Both findings correlate with clinical improvement in these animal models.
Mechanisms of protection by HDAC inhibitors. (1) Decreased caspase activation leading to enhanced neuronal survival. […] Caspase 3 is known to be activated in rat EAE spinal cords (Ahmed et al., 2002), and correlates with retinal ganglion cell loss and optic neuritis-related disability (Meyer et al., 2001). Neuronal overexpression of the anti-caspase factor Bcl-2 ameliorates EAE (Offen et al., 2000). Caspase 3 also has the ability to modulate Bcl2 and activate upstream caspases triggered by Fas (Woo et al., 1999), an apoptotic pathway implicated in EAE (Sabelko et al., 1997). Finally, CNS activation of caspases has been implicated in the progression of Alzheimer's disease (AD) (Pompl et al., 2003). Thus, the inventor proposes that blockade of neuronal caspase activation is a mechanism by which HDAC inhibitors ameliorate neuronal death in these disorders (EAE, ALS and AD).

ras transformed cells = conditions: cited from earlier work
CNS tissue from EAE mice = test: Quantitative RT-PCR on CNS tissue of EAE mice; type: in vivo
Experimental: FIG. 8—Identification of gene expression changes induced by HDAC inhibitors in vivo, using reverse transcriptase polymerase chain reaction (RT-PCR). CNS and spleen tissue samples from EAE mice were used to isolate RNA. One step real time quantitative RT-PCR (QRT-PCR) was then performed in triplicate for each sample (n=3 per group of mice) with SYBR Green and an ABI Prism 7700 Sequence Detection System (PE Applied Biosystems, Foster City, Calif.).
d) Quantitative RT-PCR (QRT-PCR) on CNS and spleen tissues from TSA-treated EAE mice detects numerous genes modulated by this HDAC inhibitor. […] QRT-PCR unveiled new CNS effects of TSA (FIG. 8), including upregulation of the neuronal trait genes sodium channel Nav1.2 and dopamine β hydroxylase (Dbh), and downregulation of the pro-apoptotic factors caspase 2 (casp2) and apoptosis inducing factor (Aif). In spleen tissues, QRT-PCR confirmed elevation of Ifna7 and Adipsin and downregulation of Igκ V22 mRNAs, and unveiled downregulation by TSA of multiple inflammatory factors, such as IL-8 receptor, IL-2 receptor, IL-12, and the costimulatory molecule CD28, from pathways implicated in MS (Glabinsk and Ransohoff, 2001; Dangond, 2002).

mouse model = conditions: cited from earlier work
EAE mice spinal cords = test: DNA microarray analysis of EAE mice spinal cords; type: in vivo
Excerpt: (2) Modulation of genes involved in neuroprotection and immune regulation by TSA. a) Microarrays detect protective genes regulated by TSA in EAE mice spinal cords. The inventor pooled RNA from tissues of three animals in each group (TSA treated and vehicle-treated) for DNA microarray analysis. As shown (Table 3), intraperitoneal TSA led to the enhanced expression of mRNAs for the antioxidant glutathione peroxidase (Gpx1) and the neuroprotective insulin-like growth factor 2 (Igf2). […] Intraperitoneal TSA also led to decreased expression in EAE spinal cords of the chemokine receptor CCR6, immunoglobulin V(H)II, the vascular homeostasis-related phospholipase A2, and upregulation of the immunomodulatory factor interferon-α2 (Ifna2), the latter with known beneficial effects in MS patients.
Microarrays detect protective genes co-regulated by TSA in EAE mice spinal cords and spleens.

CC(/C=C/C(=O)NO)=C\[C@@H](C)C(=O)c1ccc(N(C)C)cc1 [TSA, Trichostatin A]
Activated caspase 9, densitometry of western bands, brain tissue (caspases 3 and 9; intraperitoneal TSA vs vehicle-treated mice): decreased
activation of caspases 3 and 9 in CNS tissue (caspases 3 and 9; intraperitoneal TSA, MS (EAE) mice, western analysis): decreased activation of caspases 3 and 9
hyperacetylation (ras transformed cells): induce hyperacetylation
morphology of ras transformed cells (ras transformed cells): reversion of ras transformed cells to normal morphology
fold change of key genes altered, QRT-PCR (CNS tissue from EAE mice; CNS and spleen samples, vs vehicle-treated EAE animals, n=3 per group): > 1.5 fold
Gpx1 mRNA by QRT-PCR (CNS tissue from EAE mice; CNS, TSA-treated EAE mice): elevated
Ifna2 mRNA by QRT-PCR (CNS tissue from EAE mice; CNS, TSA-treated EAE mice): elevated
Mug mRNA by QRT-PCR (CNS tissue from EAE mice; CNS, TSA-treated EAE mice): downregulated
Tmpo mRNA by QRT-PCR (CNS tissue from EAE mice; CNS, TSA-treated EAE mice): downregulated
apoptosis inducing factor (Aif) mRNA by QRT-PCR (CNS tissue from EAE mice; CNS, TSA-treated EAE mice): downregulation
caspase 2 (casp2) mRNA by QRT-PCR (CNS tissue from EAE mice; CNS, TSA-treated EAE mice): downregulation
dopamine β hydroxylase (Dbh) mRNA by QRT-PCR (CNS tissue from EAE mice; CNS, TSA-treated EAE mice): upregulation
sodium channel Nav1.2 mRNA by QRT-PCR (CNS tissue from EAE mice; CNS, TSA-treated EAE mice): upregulation
thromboxane A2 receptor (Tbxa2r) mRNA by QRT-PCR (CNS tissue from EAE mice; CNS, TSA-treated EAE mice): downregulated
immunosuppression (mouse model): induces immunosuppression
Fold Δ CNS, Paired box gene 4 (Pax4) (EAE mice spinal cords; Table 5, probe set AB010557, i.p. TSA, EAE mice spinal cord): −12.5 fold
Fold Δ CNS, Axin (EAE mice spinal cords; Table 5, probe set AF009011, i.p. TSA, EAE mice spinal cord): 4.9 fold
Fold Δ CNS, DNA methyltransferase (Dnmt1) (EAE mice spinal cords; Table 5, probe set AF036008, i.p. TSA, EAE mice spinal cord): −8.8 fold
Fold Δ CNS, Metaxin homolog (EAE mice spinal cords; Table 5, probe set AV108173, i.p. TSA, EAE mice spinal cord): −11.6 fold
Fold Δ CNS, Thromboxane A2 receptor (Tbxa2r) (EAE mice spinal cords; Table 5, probe set D10849, i.p. TSA, EAE mice spinal cord): −5.2 fold
Fold Δ CNS, Growth differentiation factor (Gdf9) (EAE mice spinal cords; Table 5, probe set L06444, i.p. TSA, EAE mice spinal cord): 3.5 fold
Fold Δ CNS, Neurofilament heavy (Nefh) (EAE mice spinal cords; Table 5, probe set M35131, i.p. TSA, EAE mice spinal cord): 2.3 fold
Fold Δ CNS, Snail homolog 1 (Snail1) (EAE mice spinal cords; Table 5, probe set M95604, i.p. TSA, EAE mice spinal cord): 5.3 fold
Fold Δ CNS, Dishevelled 2 (Dvl2) (EAE mice spinal cords; Table 5, probe set U24160, i.p. TSA, EAE mice spinal cord): −2.1 fold
Fold Δ CNS, Rearranged in lymphoma (Frat1) (EAE mice spinal cords; Table 5, probe set U58974, i.p. TSA, EAE mice spinal cord): 4.5 fold
Fold Δ CNS, Immunoglobulin H and L variable (EAE mice spinal cords; Table 5, probe set U62386, i.p. TSA, EAE mice spinal cord): −2.1 fold
Fold Δ CNS, Cyclin D-interacting Dmp1 (Dmtf1) (EAE mice spinal cords; Table 5, probe set U70017, i.p. TSA, EAE mice spinal cord): 5.4 fold
Fold Δ CNS, Neuronal PAS domain 1 (Npas1) (EAE mice spinal cords; Table 5, probe set U77967, i.p. TSA, EAE mice spinal cord): 2 fold
Fold Δ CNS, Phospholipase C-beta-1b (Picb1) (EAE mice spinal cords; Table 5, probe set U85714, i.p. TSA, EAE mice spinal cord): 3.4 fold
Fold Δ CNS, Glutathione peroxidase (Gpx1) (EAE mice spinal cords; Table 5, probe set X03920, i.p. TSA, EAE mice spinal cord): 3 fold
Fold Δ CNS, Immunoglobulin kappa chain (1gk-V20) (EAE mice spinal cords; Table 5, probe set X16678, i.p. TSA, EAE mice spinal cord): −3.3 fold
Fold Δ CNS, Paired box gene 2 (Pax2) (EAE mice spinal cords; Table 5, probe set X55781, i.p. TSA, EAE mice spinal cord): 7.1 fold
Fold Δ CNS, Max binding protein ROX (Mnt) (EAE mice spinal cords; Table 5, probe set Y07609, i.p. TSA, EAE mice spinal cord): −2.2 fold
Fold Change, Ten-m3 (EAE mice spinal cords; probe set 92500, spinal cord, I.P. TSA vs vehicle-treated EAE mice): −5.4 fold
Fold Change, Thymopoietin (Tmpo) (EAE mice spinal cords; probe set 92782, spinal cord, I.P. TSA vs vehicle-treated EAE mice): −6.4 fold
Fold Change, Histidine ammonia lyase (Ha) (EAE mice spinal cords; probe set 92833, spinal cord, I.P. TSA vs vehicle-treated EAE mice): 5.3 fold
Fold Change, SH3 domain protein 2B (EAE mice spinal cords; probe set 93275, spinal cord, I.P. TSA vs vehicle-treated EAE mice): 4.5 fold
Fold Change, Hox-3.1 (EAE mice spinal cords; probe set 93378, spinal cord, I.P. TSA vs vehicle-treated EAE mice): −5.3 fold
Fold Change, Cdk inhibitor p19 (EAE mice spinal cords; probe set 94521, spinal cord, I.P. TSA vs vehicle-treated EAE mice): −5.3 fold
Fold Change, IFN-alpha-2 (1fna2) (EAE mice spinal cords; probe set 94717, spinal cord, I.P. TSA vs vehicle-treated EAE mice): 5.6 fold
Fold Change, Histocompatibility 2 D region locus 1 (EAE mice spinal cords; probe set 97540, spinal cord, I.P. TSA vs vehicle-treated EAE mice): 7.4 fold
Fold Change, Murinoglobulin (Mug) (EAE mice spinal cords; probe set 97680, spinal cord, I.P. TSA vs vehicle-treated EAE mice): −7.2 fold
Fold Change, Transferrin-like p97 (EAE mice spinal cords; probe set 97970, spinal cord, I.P. TSA vs vehicle-treated EAE mice): −5.7 fold
Fold Change, Insulin-like growth factor 2 (1gf2) (EAE mice spinal cords; probe set 98623, spinal cord, I.P. TSA vs vehicle-treated EAE mice): 5.2 fold
Fold Change, Phospholipase A2 (Pla2) (EAE mice spinal cords; probe set 99326, spinal cord, I.P. TSA vs vehicle-treated EAE mice): −6.4 fold
Fold Change, CCR6 (EAE mice spinal cords; probe set 99899, spinal cord, I.P. TSA vs vehicle-treated EAE mice): −7.3 fold
Fold Change, Ig V(H)II (EAE mice spinal cords; probe set 100362, spinal cord, I.P. TSA vs vehicle-treated EAE mice): −4.9 fold
Fold Change, Glutathione peroxidase (Gpx1) (EAE mice spinal cords; probe set 101676, spinal cord, I.P. TSA vs vehicle-treated EAE mice): 6.9 fold
Fold Change, Mapkapk5 (EAE mice spinal cords; probe set 104364, spinal cord, I.P. TSA vs vehicle-treated EAE mice): −6.5 fold
